We go through 57 molecules from BindingDB's records for doi:10.1007/s10822-022-00478-x (Roche Innovation Center Basel, F. Hoffmann-La Roche Ltd., 2022).

The target in the assay is cAMP and cAMP-inhibited cGMP 3',5'-cyclic phosphodiesterase 10A (Homo sapiens, UniProt Q9Y233). As to the kind of experiment: PDE10A assay. The protocol: Compounds were diluted in 20 mM HEPES/NaOH (pH 7.5), 10 mM MgCl2 and 0.05 mg/ml bovine serum albumin. A fixed amount of 2 ng/well human PDE10A enzyme was added and incubated at room temperature for 15 min under agitation. The reaction was started by the addition of the substrate cocktail [3H]cGMP (Perkin Elmer NET337001MC, S.A. 13.5 Ci/mmol) / cGMP at a final concentration of 50 nM and incubated for an additional 15 min. The reaction was stopped by the addition of 0.5 mg/well of Y-Si SPA beads. The plates were shaken for 1 h, followed by a brief centrifugation (170 g for 1 min). The radioactivity bound to the beads was estimated using a TopCount (Perkin-Elmer). For the determination of IC50 values, a four parameters logistics equation was used. pIC50 is defined as − log10(IC50).

Molecules are shown by their SMILES.

On to `COc1ccc2c(=O)n(C)c3c(C)nc(C)n3c2c1` [Roche-Dataset for PDE10A, Compound 1111], for which the IC50 stood at 2520 nM.
The same measure for `CC(C)(C)OCCCNC(=O)c1nc(C2CC2)cnc1Nc1cncnc1` [Roche-Dataset for PDE10A, Compound 968]: 295 nM; for `Cn1ncc(CO)c1C(=O)Nc1ccn2nc(-c3ccccc3)nc2c1` [Roche-Dataset for PDE10A, Compound 287]: 52 nM; for `COc1ccc(Cn2nc(N3CCCC3)nc2CCc2nc3c(Cl)cc(Cl)c(C)n3n2)cc1` [Roche-Dataset for PDE10A, Compound 97]: 0.64 nM.
The molecule `O=C1c2ccccc2C(=O)N1CCc1cnc(-c2ccccc2)[nH]1` [Roche-Dataset for PDE10A, Compound 299] returned an IC50 of 503 nM.
Take `O=C(NCCCc1noc(-c2ccccc2)n1)c1nc(C2CC2)cnc1Nc1cncnc1` [Roche-Dataset for PDE10A, Compound 181]: the IC50 was determined as 495 nM. The IC50 values of the last two molecules are within 1.5-fold of each other.
As for `Cn1cc(-c2ccccc2)nc1COc1nc(OC2CCOCC2)c2cc(Cl)ccc2n1` [Roche-Dataset for PDE10A, Compound 100], the figure is 16 nM; as for `CNC(=O)c1cc(OCCO)ccc1NC(=O)c1nc(C2CC2)cnc1Nc1cncnc1` [US8703768, 216], 0.77 nM; as for `CN(c1cncnc1)c1ccc(C2CC2)nc1C(=O)Nc1cc(-c2ccccn2)nn1C` [Roche-Dataset for PDE10A, Compound 360], 5600 nM.
Regarding `Cn1ncc(C(=O)N2CC(F)C2)c1C(=O)Nc1ccn2nc(-c3ccccc3)nc2c1` [Roche-Dataset for PDE10A, Compound 165], the midpoint of inhibition, the IC50, lay at 0.36 nM.
Molecule `O=C1c2ccccc2C(=O)N1CCc1nc(-c2ccncc2)no1` [Roche-Dataset for PDE10A, Compound 570] had an IC50 of 11900 nM.
With `O=C(Nc1ccn2nc(-c3ccccc3)nc2c1)c1conc1C(=O)NC1CC1` [Roche-Dataset for PDE10A, Compound 437], the IC50 was 150 nM.
For `Cn1nc(-c2ccccn2)cc1NC(=O)c1cc(Br)c[nH]c1=O` [Roche-Dataset for PDE10A, Compound 636], the IC50 turned out to be 295 nM.
Molecule `COCCN(C)C(=O)c1cnn(C)c1C(=O)Nc1ccn2cc(-c3cccc(F)n3)nc2n1` [Roche-Dataset for PDE10A, Compound 81] registered an IC50 of 163 nM.
As for `CN(C(=O)c1cnn(C)c1C(=O)N[C@@H]1CCn2cc(-c3ccccc3)nc2C1)C1CC1` [Roche-Dataset for PDE10A, Compound 133], the figure is 4.3 nM.
The same measure for `Cc1ncc(C)n2nc(CCc3nc(N4CCN(C(c5ccccc5)c5ccccc5)C4=O)nn3C)nc12` [Roche-Dataset for PDE10A, Compound 1145]: 4770 nM.
As to `Cc1ccc(C(=O)Nc2ccn3nc(-c4ccccc4)nc3c2)cn1` [Roche-Dataset for PDE10A, Compound 684], the IC50 is 4670 nM.
As for `O=C(Nc1cccc(N2CCC(O)CC2)c1)c1nc(C2CC2)cnc1Nc1cncnc1` [Roche-Dataset for PDE10A, Compound 703], the figure is 13 nM; as for `Cc1nc2ccc(NC(=O)c3c(C(=O)N4CCC4)cnn3C)cn2n1` [Roche-Dataset for PDE10A, Compound 1007], 3720 nM; as for `COc1ccc2c(=O)n(C)c3c(C)nc(-c4cccc(Cl)c4)n3c2c1` [Roche-Dataset for PDE10A, Compound 981], 71 nM.
In turn, `CN(C)C(=O)c1cnn(C)c1C(=O)Nc1ccn2cc(-c3cccc(Br)c3)nc2n1` [Roche-Dataset for PDE10A, Compound 319] gave an IC50 of 40 nM.
The same measure for `O=C(Nc1ccn2nc(-c3ccccc3)nc2c1)c1cc(Cl)nc(NC2CC2)c1` [Roche-Dataset for PDE10A, Compound 101]: 6.12 nM; for `O=C(Nc1ccn(CC(F)(F)F)n1)c1nc(Cl)ccc1Nc1cncnc1` [Roche-Dataset for PDE10A, Compound 859]: 156 nM.
As for `Cc1nc(CCc2nc(-c3ccccc3)cn2C)nc2ccccc12` [Roche-Dataset for PDE10A, Compound 129], the figure is 5.25 nM; as for `O=C(c1nc(C2CC2)cnc1Nc1cncnc1)N1CCC(Cc2ccccc2)CC1` [Roche-Dataset for PDE10A, Compound 937], 10000 nM; as for `CN(C(=O)c1cnn(C)c1C(=O)N[C@@H]1CCn2c(nc(-c3ccccc3)c2Cl)C1)C1CC1` [Roche-Dataset for PDE10A, Compound 110], 52 nM.
As for `CNC(=O)[C@H]1CCC[C@@H]1NC(=O)c1nc(C2CC2)cnc1Nc1cncnc1` [Roche-Dataset for PDE10A, Compound 1000], the figure is 696 nM; as for `CCn1nccc1NC(=O)c1ccc2cc(-c3ccccc3)nn2c1` [Roche-Dataset for PDE10A, Compound 654], 575 nM.
`Cc1ncc(C)n2nc(CCc3nc(C)n(-c4ccccc4)n3)nc12` [Roche-Dataset for PDE10A, Compound 456] gave an IC50 of 748 nM.
The same measure for `O=C(N[C@@H]1C[C@H]2CC[C@@H]1C2)c1nc(C2CC2)cnc1Nc1cncnc1` [Roche-Dataset for PDE10A, Compound 1126]: 1080 nM.
As for `Cc1nc2ccc(Cl)cc2nc1OCc1nc(-c2ccccc2)cn1C` [Roche-Dataset for PDE10A, Compound 769], the figure is 6.38 nM.
`Cn1ncc(C(=O)N2CCC2)c1C(=O)Nc1ccn2nc(-c3ccccc3OCCCF)nc2c1` [Roche-Dataset for PDE10A, Compound 11] returned an IC50 of 0.3 nM.
Regarding `CCOC(=O)c1cnn(C)c1C(=O)Nc1ccn2nc(N3CCCC3)nc2c1` [Roche-Dataset for PDE10A, Compound 353], the midpoint of inhibition, the IC50, lay at 21 nM.
Molecule `Cc1cc(NC(=O)c2c(C(=O)N3CCC3)cnn2C)cc(Br)n1` [Roche-Dataset for PDE10A, Compound 1139] showed an IC50 of 4650 nM.
As for `Cn1ncc(C(=O)N2CCC2)c1C(=O)Nc1ccn(-c2cc(Cl)cc(Cl)c2)n1` [Roche-Dataset for PDE10A, Compound 1051], the figure is 43 nM; as for `O=C(Nc1cc(-c2ccccn2)nn1CCc1ccccc1)c1nc(C2CC2)ccc1Nc1cncnc1` [US8470820, 17], 4.91 nM.
As for `O=C(NCCC1CCOCC1)c1nc(C2CC2)cnc1Nc1cncnc1` [Roche-Dataset for PDE10A, Compound 915], the figure is 1470 nM; as for `COC(=O)c1cnn(C)c1C(=O)Nc1ccn2nc(-c3ccccc3)nc2c1` [Roche-Dataset for PDE10A, Compound 378], 15 nM.
`COc1nc2cc(NC(=O)c3c(C(=O)N4CCC4)cnn3C)ccn2n1` [Roche-Dataset for PDE10A, Compound 745] yielded an IC50 of 6550 nM.
The same measure for `Cn1ncc(C(=O)O)c1C(=O)Nc1ccc2cc(-c3ccccc3)nn2c1` [Roche-Dataset for PDE10A, Compound 377]: 19 nM.
The same measure for `Cn1cc(-c2ccccc2)nc1CCc1ccccn1` [Roche-Dataset for PDE10A, Compound 467]: 10000 nM; for `Cc1cnc(C)n2nc(/C=C/c3nc(N4CCCC4)n(C)n3)nc12` [Roche-Dataset for PDE10A, Compound 443]: 20 nM.
With `O=C(Nc1cccc(N2CCCC2)c1)c1nc(C2CC2)cnc1Nc1cncnc1` [Roche-Dataset for PDE10A, Compound 793], inhibition was half-maximal at 132 nM (IC50).
The same measure for `COC[C@H]1CCCN1c1nc(CCc2nc3c(C)ncc(C)n3n2)n(C)n1` [Roche-Dataset for PDE10A, Compound 249]: 12 nM.
Molecule `O=C(Nc1cccc(N2CCOCC2)c1)c1nc(C2CC2)cnc1Nc1cncnc1` [Roche-Dataset for PDE10A, Compound 812] returned an IC50 of 13 nM. This IC50 and that of the molecule before are within 1.5-fold of each other.
The same measure for `COCCOc1cc(Cl)c(C)n2nc(CCc3nc(N4CCCC4)nn3C)nc12` [Roche-Dataset for PDE10A, Compound 146]: 0.17 nM; for `Cc1cc(NC(=O)c2c(C(=O)N3CCC3)cnn2C)cc(N)n1` [Roche-Dataset for PDE10A, Compound 1077]: 131 nM.
Molecule `COc1c(C)cnc(CCc2nc(-c3ccccc3)cn2C)c1C` [Roche-Dataset for PDE10A, Compound 197] registered an IC50 of 680 nM.
As for `COc1ccccc1-c1nc2n(c1Cl)CC[C@@H](NC(=O)c1c(C(=O)N3CCC3)cnn1C)C2` [Roche-Dataset for PDE10A, Compound 362], the figure is 188 nM; as for `COc1ccc(Cl)cc1C(=O)Nc1cc(-c2ccccn2)nn1C` [Roche-Dataset for PDE10A, Compound 608], 1380 nM; as for `Cn1ncc(S(C)(=O)=O)c1C(=O)Nc1ccc2cc(-c3ccccc3)nn2c1` [Roche-Dataset for PDE10A, Compound 410], 179 nM.
The same measure for `CCN(C)C(=O)c1c(NC(=O)c2nc(C3CC3)cnc2Nc2cncnc2)cnn1C` [US8703768, 203]: 25 nM; for `CCN(C)C(=O)c1c(C(=O)Nc2ccn3cc(-c4ccccc4)nc3n2)cnn1C` [Roche-Dataset for PDE10A, Compound 144]: 10000 nM; for `COc1cccc(-c2cn3c(n2)C[C@H](NC(=O)c2c(C(=O)N4CCC4)cnn2C)CC3)c1` [Roche-Dataset for PDE10A, Compound 148]: 910 nM.
The molecule `COCCn1nccc1NC(=O)c1nc(C2CC2)ccc1Nc1cncnc1` [Roche-Dataset for PDE10A, Compound 868] came in with an IC50 of 43 nM.
Molecule `Cc1nc2cc(Cl)ccc2nc1OCc1nc(-c2ccccc2)cn1C` [Roche-Dataset for PDE10A, Compound 587] returned an IC50 of 4.05 nM.
As for `O=C(NCCS(=O)(=O)c1ccccc1)c1nc(C2CC2)cnc1Nc1cncnc1` [Roche-Dataset for PDE10A, Compound 746], the figure is 3450 nM.

Broadly, the IC50 is the point on the concentration scale where inhibition reaches its midpoint. The low end stands for inhibition by little substance, the high end for a need for much substance.
